Patent US7521441B2, “Cyclopropyl fused indolobenzazepine HCV NS5B inhibitors” (Bristol-Myers Squibb Company, priority 2006, dated 2009)
pEC50, pIC50: −log10 of the molar value. Like-named read-outs stand apart in the source and are kept apart here.

Tests used:
[1] = system: HCV replicon cells; test: HCV replicon FRET assay; format: cell-based
Description: FRET Assay Preparation. To perform the HCV FRET screening assay, 96-well cell culture plates were used. The FRET peptide (Anaspec, Inc.) (Taliani et al., Anal. Biochem. 1996, 240, 60-67) contains a fluorescence donor, EDANS, near one end of the peptide and an acceptor, DABCYL, near the other end. The fluorescence of the peptide is quenched by […] resonance energy transfer (RET) between the donor and the acceptor, but as the NS3 protease cleaves the peptide the products are released from RET quenching and the fluorescence of the donor becomes apparent. The assay reagent was made as follows: 5× cell Luciferase cell culture lysis reagent from Promega (#E153A) diluted to 1× with dH2O, NaCl added to 150 mM final, the FRET peptide diluted to 20 uM final from a 2 mM stock.
To prepare plates, HCV replicon cells, with or without a Renilla luciferase reporter gene, were trypsinized and placed into each well of a 96-well plate with titrated test compounds added in columns 3 through 12; columns 1 and 2 contained a control compound (HCV protease inhibitor), and the bottom row contained cells without compound. The plates were then placed in a CO2 incubator at 37° C.
Assays. Subsequent to addition of the test compounds described above (FRET Assay Preparation), at various times the plate was removed and Alamar blue solution (Trek Diagnostics, #00-100) was added per well as a measure of cellular toxicity. After reading in a Cytoflour 4000 instrument (PE Biosystems), plates were rinsed with PBS and then used for FRET assay by the addition of 30 ul of the FRET peptide assay reagent described above (FRET Assay Preparation) per well. The plate was then placed into the Cytoflour 4000 instrument which had been set to 340 excite/490 emission, automatic mode for 20 cycles and the plate read in a kinetic mode. Typically, the signal to noise using an endpoint analysis after the reads was at least three-fold. Alternatively, after Alamar blue reading, plates were rinsed with PBS, 50 ul of DMEM (high glucose) without phenol red was added and plates were then used for luciferase assay using the Promega Dual-Glo Luciferase Assay System.
Compound analysis was determined by quantification of the relative HCV replicon inhibition and the relative cytotoxicity values. To calculate cytoxicity values, the average Alamar Blue fluorescence signals from the control wells were set as 100% non-toxic. The individual signals in each of the compound test wells were then divided by the average control signal and multiplied by 100% to determine […]. To calculate the HCV replicon inhibition values, an average background value was obtained from the two wells containing the highest amount of HCV protease inhibitor at the end of the assay period. These numbers were similar to those obtained from naïve Huh-7 cells.
The background numbers were then subtracted from the average signal obtained from the control wells and this number was used as 100% activity. The individual signals in each of the compound test wells were then divided by the averaged control values after background subtraction and multiplied by 100% to determine percent activity. EC50 values for a protease inhibitor titration were calculated as the concentration which caused a 50% reduction in FRET or luciferase activity. The two numbers generated for the compound plate, percent cytoxicity and percent activity were used to determine compounds of interest for further analysis.

[2] = molecular target: T1, HCV NS5B RdRp genotype 1b (Hepatitis C virus genotype 1b, UniProt Q9WMX2); test: Modified HCV NS5B RdRp enzyme assay (preincubation protocol); format: biochemical; details: HCV NS5B genotype 1b
T1 construct: The protein was expressed with an 18 amino acid C-terminal truncation to enhance the solubility; made in house; host or cells: E. coli BL21(DE3), pET21a vector
T1 sequence (Q9WMX2 2420-2992): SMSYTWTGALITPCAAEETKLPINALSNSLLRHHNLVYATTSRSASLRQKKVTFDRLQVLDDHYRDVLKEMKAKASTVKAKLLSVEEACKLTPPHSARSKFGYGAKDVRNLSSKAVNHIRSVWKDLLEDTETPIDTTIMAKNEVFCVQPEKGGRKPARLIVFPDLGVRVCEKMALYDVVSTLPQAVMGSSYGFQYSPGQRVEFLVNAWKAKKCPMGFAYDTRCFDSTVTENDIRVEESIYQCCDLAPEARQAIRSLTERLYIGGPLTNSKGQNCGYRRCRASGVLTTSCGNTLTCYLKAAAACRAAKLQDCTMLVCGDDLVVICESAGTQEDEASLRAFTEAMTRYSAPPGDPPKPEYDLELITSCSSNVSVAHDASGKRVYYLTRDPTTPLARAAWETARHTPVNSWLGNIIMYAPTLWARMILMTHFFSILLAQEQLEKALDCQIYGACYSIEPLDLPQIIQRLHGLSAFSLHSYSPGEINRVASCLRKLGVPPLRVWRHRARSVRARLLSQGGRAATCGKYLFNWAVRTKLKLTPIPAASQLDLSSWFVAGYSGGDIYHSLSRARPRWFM
Description: HCVNS5B RdRp cloning, expression, and purification. The cDNA encoding the NS5B protein of HCV, genotype 1b, was cloned into the pET21a expression vector. The protein was expressed with an 18 amino acid C-terminal truncation to enhance the solubility. The E. coli competent cell line BL21(DE3) was used for expression of the protein. Cultures were grown at 37° C. for ˜4 hours until the cultures reached an optical density of 2.0 at 600 nm. The cultures were cooled to 20° C. and induced with 1 mM IPTG. Fresh ampicillin was added to a final concentration of 50 μg/ml and the cells were grown overnight at 20° C.
Cell pellets (3L) were lysed for purification to yield 15-24 mgs of purified NS5B. The lysis buffer consisted of 20 mM Tris-HCl, pH 7.4, 500 mM NaCl, 0.5% triton X-100, 1 mM DTT, 1 mM EDTA, 20% glycerol, 0.5 mg/ml lysozyme, 10 mM MgCl2, 15 ug/ml deoxyribonuclease I, and Complete TM protease inhibitor tablets (Roche). After addition of the lysis buffer, frozen cell pellets were resuspended using a tissue homogenizer. To reduce the viscosity of the sample, aliquots of the lysate were sonicated on ice using a microtip attached to a Branson sonicator. The sonicated lysate was centrifuged at 100,000×g for 1 hr at 4° C. and filtered through a 0.2 μm filter unit (Corning).
The protein was purified using three sequential chromatography steps: Heparin sepharose CL-6B, polyU sepharose 4B, and Hitrap SP sepharose (Pharmacia). The chromatography buffers were identical to the lysis buffer but contained no lysozyme, deoxyribonuclease I, MgCl2 or protease inhibitor and the NaCl concentration of the buffer was adjusted according to the requirements for charging the protein onto the column. Each column was eluted with a NaCl gradient which varied in length from 5-50 column volumes depending on the column type. After the final chromatography step, the resulting purity of the enzyme is >90% based on SDS-PAGE analysis. The enzyme was aliquoted and stored at −80° C.
Standard HCVNS5B RdRp enzyme assay. HCV RdRp genotype 1b assays were run in a final volume of 60 μl in 96 well plates (Costar 3912). The assay buffer is composed of 20 mM Hepes, pH 7.5, 2.5 mM KCl, 2.5 mM MgCl2, 1 mM DTT, 1.6 U RNAse inhibitor (Promega N2515), 0.1 mg/ml BSA (Promega R3961), and 2% glycerol. All compounds were serially diluted (3-fold) in DMSO and diluted further in water such that the final concentration of DMSO in the assay was 2%. HCV RdRp genotype 1b enzyme was used at a final concentration of 28 nM. A polyA template was used at 6 nM, and a biotinylated oligo-dT12 primer was used at 180 nM final concentration. Template was obtained commercially (Amersham 27-4110). Biotinylated primer was prepared by Sigma Genosys. 3H-UTP was used at 0.6 μCi (0.29 μM total UTP). Reactions were initiated by the addition of enzyme, incubated at 30° C. for 60 min, and stopped by adding 25 μl of 50 mM EDTA containing SPA beads (4 μg/μl, Amersham RPNQ 0007). Plates were read on a Packard Top Count NXT after >1 hr incubation at room temperature.
Modified HCVNS5B RdRp enzyme assay. A modified enzyme assay was performed essentially as described for the standard enzyme assay except for the following: The biotinylated oligo dT12 primer was precaptured on streptavidin-coated SPA beads by mixing primer and beads in assay buffer and incubating at room temperature for one hour. Unbound primer was removed after centrifugation. The primer-bound beads were resuspended in 20 mM Hepes buffer, pH 7.5 and used in the assay at final concentrations of 20 nM primer and 0.67 μg/μl beads. Order of addition in the assay: enzyme (14 nM) was added to diluted compound followed by the addition of a mixture of template (0.2 nM), 3H-UTP (0.6 μCi, 0.29 μM), and primer-bound beads, to initiate the reaction; concentrations given are final. Reactions were allowed to proceed for 4 hours at 30° C.
IC50 values for compounds were determined using seven different [I]. […]

[3] = Hepatitis C virus, FRET assay, HCV replicon cells, read-out: EC50

Row | Compound | pEC50 [1, 3] | pIC50 [2] | pEC50 ([1]; Hepatitis C virus) | pEC50 ([1]; FRET assay, HCV replicon cells, read-out: EC50)
1 | C[C@@H]1CN(C(=O)C23CC2c2cc(O)ccc2-c2c(C4CCCCC4)c4ccc(C(=O)NS(=O)(=O)N(C)C)cc4n2C3)C[C@H](C)N1C (stereo partly shown) | 6.30 to 9.00 | 6.30 to 9.00 |  | 
2 | C[C@@H]1CN(C(=O)C23CC2c2cc(OCc4ccccc4)ccc2-c2c(C4CCCCC4)c4ccc(C(=O)NS(=O)(=O)N(C)C)cc4n2C3)C[C@H](C)N1C (stereo partly shown) | 6.30 to 9.00 | 6.30 to 9.00 |  | 
3 | COc1ccc2c(c1)C1CC1(C(=O)N1C[C@@H](C)N(C(C)C)[C@@H](C)C1)Cn1c-2c(C2CCCCC2)c2ccc(C(=O)NS(=O)(=O)N(C)C)cc21 (stereo partly shown) | 6.30 to 9.00 | 6.30 to 9.00 |  | 
4 | COc1ccc2c(c1)C1CC1(C(=O)N1C[C@@H](C)N(C)[C@@H](C)C1)Cn1c-2c(C2CCCCC2)c2ccc(C(=O)NS(=O)(=O)C3CC3)cc21 (stereo partly shown) | 6.30 to 9.00 | 6.30 to 9.00 |  | 
5 | COc1ccc2c(c1)C1CC1(C(=O)N1C[C@@H](C)N(C)[C@@H](C)C1)Cn1c-2c(C2CCCCC2)c2ccc(C(=O)NS(=O)(=O)N(C)C)cc21 (stereo partly shown) |  | 6.30 to 9.00 | 6.30 to 9.00 | 
6 | COc1ccc2c(c1)[C@@H]1C[C@]1(C(=O)N1C[C@@H](C)N(C)[C@@H](C)C1)Cn1c-2c(C2CCCCC2)c2ccc(C(=O)NS(=O)(=O)N(C)C)cc21 |  | 6.30 to 9.00 | 6.30 to 9.00 | 
7 | COc1ccc2c(c1)[C@H]1C[C@@]1(C(=O)N1C[C@@H](C)N(C)[C@@H](C)C1)Cn1c-2c(C2CCCCC2)c2ccc(C(=O)NS(=O)(=O)N(C)C)cc21 |  | 6.30 to 9.00 | 6.30 to 9.00 | 
8 | COc1cccc2c1C1CC1(C(=O)N1C[C@@H](C)N(C)[C@@H](C)C1)Cn1c-2c(C2CCCCC2)c2ccc(C(=O)NS(=O)(=O)N(C)C)cc21 (stereo partly shown) | 6.30 to 9.00 | 6.30 to 9.00 |  | 
9 | COc1ccc2c(c1)C1CC1(C(=O)N1C[C@@H](C)N(C(C)=O)[C@@H](C)C1)Cn1c-2c(C2CCCCC2)c2ccc(C(=O)NS(=O)(=O)N(C)C)cc21 (stereo partly shown) |  | 6.30 to 9.00 | 6.30 to 9.00 | 
10 | COc1ccc2c(c1)C1CC1(C(=O)N1C[C@@H](C)N(C)[C@@H](C)C1)Cn1c-2c(C2CCCCC2)c2ccc(C(=O)NS(=O)(=O)N3CCC3)cc21 (stereo partly shown) | 6.30 to 9.00 | 6.30 to 9.00 |  | 
11 | COc1ccc2c(c1)C1CC1(C(=O)N1[C@H](C)CN(Cc3ccccc3)C[C@@H]1C)Cn1c-2c(C2CCCCC2)c2ccc(C(=O)NS(=O)(=O)N(C)C)cc21 (stereo partly shown) | 6.00 to 6.30 | 5.00 to 6.00 |  | 
12 | COc1ccc2c(c1)C1CC1(C(=O)N1C[C@@H](C)N(C)[C@@H](C)C1)Cn1c-2c(C2CCCCC2)c2ccc(C(=O)NS(=O)(=O)C(C)C)cc21 (stereo partly shown) | 6.30 to 9.00 | 6.30 to 9.00 |  | 
13 | COc1ccc2c(c1)C1CC1(C(=O)N1C[C@@H](C)N(C)[C@@H](C)C1)Cn1c-2c(C2CCCCC2)c2ccc(C(=O)NS(C)(=O)=O)cc21 (stereo partly shown) [drawing 31] | 6.30 to 9.00 | 6.30 to 9.00 |  | 
14 | COc1ccc2c(c1)C1CC1(C(=O)N1C[C@@H](C)N(C)[C@@H](C)C1)Cn1c-2c(C2CCCCC2)c2ccc(C(=O)NS(C)(=O)=O)cc21 (stereo partly shown) [drawing 34] |  | 6.30 to 9.00 |  | 6.30 to 9.00
